Assay results as given in patent EP4748847A1, “PEPTIDE COMPLEX HAVING VEGFR -2 AGONIST ACTIVITY” (Peptidream Inc, priority 2023, dated 2025).
*1 amine or outer side, *2 acyl side, *3 side chain or, on linkers, in order; H or OH if unused. Where a SMILES comes first, the peptide text is derived from it. Bridges are numbered along the chain shown (N, C = ends). Roman numbers before positions name the chains, in order. Where no end group is shown, it is not given here. [ ]: non-standard residue; d: D form. X2 = O=C(OCCOCCOCCOCCOCCOCCOCCOCCOCCOCCOCCOCCOC(=O)[*:2])[*:1]; hTyr = N[C@@H](CCc1ccc(O)cc1)C(=O)O

Columns and labels:
VEGFR-2 = molecular target: T1, VEGFR-2 (Homo sapiens, UniProt P35968); assay: pVEGFR AlphaLISA assay (VEGFR-2 phosphorylation, p-Tyr1175) in HUVECs; assay type: cell-based; conditions: 10 minutes stimulation, % activity, maximum VEGF165a signal = 100%, unstimulated = 0%, peptide 10, 100 nM (dimer structures 2-41)
T1 construct: endogenous in cells; host or cells: HUVEC
T1 sequence (P35968 20-1356): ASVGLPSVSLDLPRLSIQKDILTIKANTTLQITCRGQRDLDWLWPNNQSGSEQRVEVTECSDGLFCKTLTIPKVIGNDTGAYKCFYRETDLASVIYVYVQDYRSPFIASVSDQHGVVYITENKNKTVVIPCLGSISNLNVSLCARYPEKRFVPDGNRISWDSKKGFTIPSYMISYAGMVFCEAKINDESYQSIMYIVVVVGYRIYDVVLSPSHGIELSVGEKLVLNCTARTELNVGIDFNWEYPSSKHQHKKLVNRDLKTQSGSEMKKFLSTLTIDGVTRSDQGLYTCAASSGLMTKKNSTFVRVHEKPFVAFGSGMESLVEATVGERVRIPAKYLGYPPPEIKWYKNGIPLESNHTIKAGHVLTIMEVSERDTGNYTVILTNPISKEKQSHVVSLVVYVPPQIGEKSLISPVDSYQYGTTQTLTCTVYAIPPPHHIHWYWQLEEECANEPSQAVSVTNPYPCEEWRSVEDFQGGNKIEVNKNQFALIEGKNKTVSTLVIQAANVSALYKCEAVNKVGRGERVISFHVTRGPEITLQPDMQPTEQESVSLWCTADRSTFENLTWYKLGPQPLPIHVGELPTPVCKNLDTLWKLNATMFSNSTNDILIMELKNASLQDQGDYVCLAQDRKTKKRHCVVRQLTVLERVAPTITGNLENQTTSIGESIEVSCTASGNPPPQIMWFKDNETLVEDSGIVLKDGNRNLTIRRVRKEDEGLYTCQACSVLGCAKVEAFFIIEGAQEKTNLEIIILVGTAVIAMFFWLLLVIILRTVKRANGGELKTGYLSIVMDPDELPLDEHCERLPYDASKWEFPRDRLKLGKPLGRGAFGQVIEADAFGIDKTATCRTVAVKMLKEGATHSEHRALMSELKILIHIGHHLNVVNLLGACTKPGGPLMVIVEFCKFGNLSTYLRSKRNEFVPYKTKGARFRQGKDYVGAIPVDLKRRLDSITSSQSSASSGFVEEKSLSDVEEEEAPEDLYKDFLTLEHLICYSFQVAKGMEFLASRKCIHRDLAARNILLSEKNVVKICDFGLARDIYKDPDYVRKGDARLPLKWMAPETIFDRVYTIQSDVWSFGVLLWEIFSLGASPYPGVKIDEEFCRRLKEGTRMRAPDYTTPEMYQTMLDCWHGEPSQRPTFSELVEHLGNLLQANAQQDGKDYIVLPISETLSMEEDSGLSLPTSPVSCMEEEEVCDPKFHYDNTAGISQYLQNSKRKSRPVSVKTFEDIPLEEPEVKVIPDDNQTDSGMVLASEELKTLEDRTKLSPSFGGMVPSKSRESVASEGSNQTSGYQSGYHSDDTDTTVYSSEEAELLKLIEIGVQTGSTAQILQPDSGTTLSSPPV
Outline: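 HUVECs grown 2 days, starved 18 hours in EBM-2 with 0.5% FBS, then stimulated 10 minutes at 37°C with peptide or VEGF165a (0.08–20 nM). VEGFR-2 p-Tyr1175 in lysates read by AlphaLISA; % activity scaled to maximal VEGF165a signal (100%) and unstimulated control (0%), binned by activity at tested peptide concentrations.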

ERK = assay: pERK AlphaLISA assay (ERK phosphorylation, p-Erk1/2 Thr202/Tyr204) in HUVEC lysate; assay type: cell-based, human; conditions: HUVEC lysate of the pVEGFR assay; % activity, maximum VEGF165a signal = 100%, unstimulated = 0%; peptide 10, 100 nM (dimer structures 2-41)
Experimental: To evaluate the intracellular signaling activation ability of the VEGFR-2 agonist peptides of the present invention, ERK phosphorylation was verified. Using the lysate employed in the pVEGFR AlphaLISA assay, the assay was performed according to the protocol of the AlphaLISA SureFire Ultra p-Erk1/2 (Thr202/Tyr204) Assay Kit (PerkinElmer). Signal detection was performed using a SpectraMax Paradigm multimode microplate reader (Molecular Devices). The obtained signals were analyzed using GraphPad Prism, and % activity was calculated with the maximum signal induced by VEGF165a set as 100% and the unstimulated control as 0%.
The VEGF165a concentration was evaluated at five points (0.08, 0.31, 1.25, 5, 20 nM) using 1/4-fold dilutions starting from 20 nM to determine the maximum value (100%). Peptide concentrations tested were: 3.2, 16, 80 nM for dimer structure […], 100 nM for dimer structures numbers 2-41; and 1.25, 5, 20 nM for dimer structures numbers 42-57.
For % activity, peptides showing ≥50% activity at 3.2 nM were designated 1-A, those showing ≥50% activity at 16 nM were designated 1-B, those showing ≥50% activity at 80 nM were designated 1-C, and those showing ≥1% but <50% activity at 80 nM were designated 1-D. […]

HUVEC = HUVEC proliferation promotion evaluation (CellTiter-Glo); assay type: cell-based, human; conditions: 2 days culture, % activity, maximum VEGF165a signal = 100%, peptide 1, 10, 100 nM
Experimental: To evaluate the biological activity of the VEGFR-2 agonist peptide of the present invention, an HUVEC proliferation promotion evaluation was conducted. HUVECs cultured as described above were detached using Tryple (Thermo Fisher Scientific). They were then seeded at 10,000 cells per well onto Nunc™ MicroWell™ 96 -Well, Nunclon Delta-Treated, Flat-Bottom Microplate (cat. #136101) . After 24 hours, cells were starved by replacing with EBM-2 medium (LONZA) containing 0.5% FBS (Thermo Fisher Scientific), 0.1% Heparin (included with the above Lonza CC-3162), and 0.1% Gentamicin (Nacalai) and cultured for 18 hours. Subsequently, Recombinant Human VEGF 165a Protein (R&D Systems) or the peptide was added, and the cells were cultured for 2 days at 37°C in a CO2 incubator. Assays were performed according to the CellTiter-Glo (Promega) kit protocol, and signals were detected using a SpectraMax Paradigm multimode microplate reader (Molecular Devices) was used for signal detection. The obtained signals were analyzed using GraphPad Prism, and % activity was calculated with the maximum signal induced by VEGF165a set as 100% and the unstimulated control as 0%.
The VEGF165a concentration was evaluated at six points (0.006, 0.03, 0.16, 0.8, 4, 20 nM) using 1/5-fold dilutions starting from 20 nM to determine the maximum value (100%). […]

Molecule	pVEGFR2 Assay Results (VEGFR-2)	pERK Assay Results (ERK)	proliferation (HUVEC)
CC(C)[C@@H]1NC(=O)CNC(=O)[C@H](CCCCNC(=O)OCCOCCOCCOCCOCCOCCOCCOCCOCCOCCOCCOCCOC(=O)NCCCC[C@@H]2NC(=O)[C@H](C(C)C)NC(=O)[C@H](CC(=O)O)NC(=O)[C@H](C(C)C)NC(=O)[C@H](Cc3c[nH]c4ccccc34)NC(=O)[C@H](Cc3c[nH]c4ccccc34)NC(=O)CSC[C@@H](C(=O)NCC(N)=O)NC(=O)[C@H](CC(=O)O)NC(=O)[C@H](CCc3ccc(O)cc3)NC(=O)[C@H](Cc3ccccc3)NC(=O)[C@H](Cc3ccc(O)cc3)NC(=O)[C@H](CC(N)=O)NC(=O)[C@H](C(C)C)NC(=O)CNC2=O)NC(=O)[C@H](C(C)C)NC(=O)[C@H](CC(=O)O)NC(=O)[C@H](C(C)C)NC(=O)[C@H](Cc2c[nH]c3ccccc23)NC(=O)[C@H](Cc2c[nH]c3ccccc23)NC(=O)CSC[C@@H](C(=O)NCC(N)=O)NC(=O)[C@H](CC(=O)O)NC(=O)[C@H](CCc2ccc(O)cc2)NC(=O)[C@H](Cc2ccccc2)NC(=O)[C@H](Cc2ccc(O)cc2)NC(=O)[C@H](CC(N)=O)NC1=O [compound 37] (I: {CH2CO}-WWVDVKGVNYF[hTyr]DCG-NH2 / II: {CH2CO}-WWVDVKGVNYF[hTyr]DCG-NH2; linker I:6-II:6 via X2; thioether I:N-I:14, II:N-II:14)	2-A (50% or more activity at 10 nM)	2-B (50% or more activity at 100 nM)	
Dimer Structure No. 1: complex of Peptide Sequence No. 3 (W-W-V-D-V-Q-D-D-L-Y-F-V-D-C-G) and Linker Structure No. 1 (PEG12c-K-PEG12c), Conjugation No. 15 (WWVDVQDDLYFVDCG; also: dimer via PEG12c-K-PEG12c linker)	2-C (1% or more but less than 50% activity at 100 nM)	2-B (50% or more activity at 100 nM)	4-D (≥1% but <50% activity at 100 nM)
